# Counter-ions that a name gives are not always drawn. Like-named read-outs stand apart in the source and are kept apart here.
# Columns and labels:
# [1] = target: T1, human LSD1 (Homo sapiens (Human), UniProt O60341); test: Experiment 1A: in vitro LSD1 enzyme activity, enzyme-coupled fluorescence (HRP/Amplex Red), H3K4me peptide 20 μM (Wuhan Heyan); assay type: biochemical; conditions: histone H3K4me peptide 20 μM
# Procedure: Experiment 1A: Evaluation of Enzyme Activity
# Testing unit: Wuhan Heyan Biomedical Technology Co., Ltd.
# The purpose of the assay was to test the in vitro inhibitory activity of the compounds against LSD1. The enzyme used in the assay was human LSD1, and the standard substrate was histone H3K4me peptide (20 μM). The activity of the compounds was determined by the enzyme-coupling fluorescent method by the combined detection of H2O2 generated after the reaction of LSD1 by horseradish peroxidase (HRP) and the fluorescent reagent Amplex Red. Starting from 10 μM, the compounds were 3-fold diluted to detect the IC50 values of the compounds at 10 concentrations. The enzyme and substrate were incubated for 30 minutes before the compound was added to the substrate to start the reaction. Fluorescence detector: EnVision, excitation wavelength: Ex/Em=530/590 nM.
# [2] = system: NCI-H1417 cells; test: Experiment 2: inhibition of NCI-H1417 cell proliferation (CellTiter-Glo, 10 days); assay type: cell-based; conditions: Homo sapiens, 240 h, 10 days incubation
# How it was run: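 Cells at 1000 per well exposed to 10-point 3-fold dilutions from 10 μM top concentration for 10 days. Viability by CellTiter-Glo luminescence; inhibition normalized to max/min controls, IC50 from four-parameter fit.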
# [3] = Experiment 3: pharmacokinetic evaluation in CD-1 mice (IV and oral); assay type: in vivo; conditions: mouse, plasma; for clearance / half-life / Vd: IV 1 mg/kg; for clearance: read-out: Clearance rate CL; for half-life: read-out: Half life T1/2 (IV, h) (converted); for Vd: read-out: Volume of distribution at steady state Vdss; for bioavailability: PO 2 mg/kg vs IV 1 mg/kg, read-out: Bioavailability F (%); for AUC(0-t): PO 2 mg/kg, read-out: Area under drug-time curve AUC0-last PO; for Cmax: single dose, oral 2 mg/kg, read-out: Peak concentration Cmax
# Procedure: Experiment 3: Pharmacokinetic Evaluation of Compounds
# Experimental purpose: To test the pharmacokinetics of compounds in CD-1 mice in vivo
# CD-1 mice (male/female, 7 to 9 weeks old, Shanghai SLAC)
# The pharmacokinetic characteristics of the compounds in rodents after intravenous injection and oral administration were tested according to the standard protocol. In the experiment, the candidate compound was formulated into clear solutions, and a single intravenous injection and oral administration were given to mice. The vehicle for intravenous injection and oral administration was a mixed vehicle composed of 10% dimethyl sulfoxide and 90% hydroxypropyl β-cyclodextrin with a content of 10%. In this project, four male/female CD-1 mice were used. Two mice were injected intravenously at a dose of 1 mg/kg, and plasma samples were collected at 0.083, 0.25, 0.5, 1, 2, 4, 8, and 24 hours after administration; the other two were administered orally by gavage at a dose of 2 mg/kg, and plasma samples were collected at 0.25, 0.5, 1, 2, 4, 8, and 24 hours after administration. The samples were centrifuged at 3200 g for 10 minutes at 4° C., and plasma samples were obtained by separating the supernatant. A methanol solution containing internal standard with 20 times the volume of the sample was added thereto to precipitate the protein, and the mixture was centrifuged at 12000 g for 15 minutes at 4° C. 50 μL of the supernatant was taken and transferred to a 96-well plate and centrifuged again. The supernatant was taken for sampling. The plasma concentration was quantitatively analyzed using LC-MS/MS analysis method, and pharmacokinetic parameters, such as peak concentration (Cmax), clearance rate (CL), half-life (T1/2), volume of distribution at steady state (Vdss), area under drug-time curve (AUC0-last), bioavailability (F).
# [4] = target: T1, human LSD1; test: Experiment 1B: in vitro LSD1 enzyme activity, enzyme-coupled fluorescence (HRP/Amplex Red), H3(1-21)K4me2 peptide 10 μM (Reaction Biology); assay type: biochemical; conditions: histone H3(1-21)K4me2 peptide 10 μM
# How it was run: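 Human LSD1 with 10 μM histone H3(1-21)K4me2 peptide; enzyme and substrate incubated 30 min before compound addition started the reaction. H2O2 detected via HRP/Amplex Red fluorescence (Ex/Em 535/590). IC50 from 10-point 3-fold dilutions starting at 10 μM.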
# [5] = system: human small cell lung cancer NCI-H1417 cell subcutaneous xenograft tumor; test: Experiment 5: in vivo pharmacodynamic study, NCI-H1417 subcutaneous xenograft tumor in CB17-SCID mice; conditions: 10 mg/kg, p.o.; for Mean tumor volume ± SEM (mm^3) (Day 28): day 28 after administration; for TGI (%): tumor volume at day 28
# Text: Experiment 5: In Vivo Pharmacodynamic Study of Compounds on CB17-SCID Mouse Model of Human Small Cell Lung Cancer NCI-H1417 Cell Subcutaneous Xenograft Tumor
# The purpose of this experiment was to evaluate the in vivo efficacy of the compounds of the present disclosure on CB17-SCID mouse model of human small cell lung cancer NCI-H1417 cell subcutaneous xenograft tumor.
# 5.2 Experimental Animals: • Species: mice • Strain: CB17-SCID mice • Week age and weight: 6-8 weeks old, 18 to 22 grams • Gender: Female • Supplier: Beijing Vital River Laboratory Animal Technology Co., Ltd.
# Human lung cancer cells NCI-H1417 were cultured in vitro in suspension in RPMI 1640 medium with 10% fetal bovine serum, 100 U/mL penicillin, and 100 μg/mL streptomycin at 37° C. in a 5% CO2 cell culture incubator. Routine digestion and passage treatment were performed twice a week. When the number of cells reached the required number, the cells were counted and resuspended in PBS at a density of 10×10^6 cells/200 μL.
# 0.2 mL of NCI-H1417 tumor cells (containing 10×10^6 cells) suspension (PBS: matrix gel=1:1) was subcutaneously inoculated on the right back of mice, and in pharmacodynamic experiments, on the 16th day after cell inoculation, when the average tumor volume reached 86 mm^3, the subjects were randomly grouped and the administration started.
# The experimental vehicle was 5% dimethyl sulfoxide/95% (10% Solutol) solution. Preparation method: 3.8 mL of […] was taken and added to 34.2 mL of double-distilled water, 2 mL of dimethyl sulfoxide was added thereto, and the mixture was mixed well. The test substance was dissolved with the vehicle, prepared as a homogeneous solution of a certain concentration, and stored at 4° C.
# The experimental indicator was to examine whether tumor growth was inhibited, delayed, or cured. The tumor diameter was measured twice a week using vernier calipers. The calculation formula of tumor volume is V=0.5a×b^2, wherein a and b represent the long and short diameters of the tumor respectively.
# The tumor inhibitory efficacy of compounds was evaluated by TGI (%). TGI (%) reflects the tumor growth inhibition rate. Calculation of TGI (%): TGI (%)=[1−(Average tumor volume at the end of administration in a certain treatment group−Average tumor volume at the beginning of administration in this treatment group)/(Average tumor volume at the end of treatment in the vehicle control group−Average tumor volume at the beginning of treatment in the vehicle control group)]×100%.
# [6] = target: hERG potassium ion channels (Homo sapiens (Human), UniProt Q12809); test: Experiment 4: hERG potassium ion channel inhibition, automated patch clamp (Qpatch), CHO-hERG cells; assay type: cell-based; conditions: highest test concentration 40 μM
# hERG potassium ion channels, sequence (Q12809 whole entry): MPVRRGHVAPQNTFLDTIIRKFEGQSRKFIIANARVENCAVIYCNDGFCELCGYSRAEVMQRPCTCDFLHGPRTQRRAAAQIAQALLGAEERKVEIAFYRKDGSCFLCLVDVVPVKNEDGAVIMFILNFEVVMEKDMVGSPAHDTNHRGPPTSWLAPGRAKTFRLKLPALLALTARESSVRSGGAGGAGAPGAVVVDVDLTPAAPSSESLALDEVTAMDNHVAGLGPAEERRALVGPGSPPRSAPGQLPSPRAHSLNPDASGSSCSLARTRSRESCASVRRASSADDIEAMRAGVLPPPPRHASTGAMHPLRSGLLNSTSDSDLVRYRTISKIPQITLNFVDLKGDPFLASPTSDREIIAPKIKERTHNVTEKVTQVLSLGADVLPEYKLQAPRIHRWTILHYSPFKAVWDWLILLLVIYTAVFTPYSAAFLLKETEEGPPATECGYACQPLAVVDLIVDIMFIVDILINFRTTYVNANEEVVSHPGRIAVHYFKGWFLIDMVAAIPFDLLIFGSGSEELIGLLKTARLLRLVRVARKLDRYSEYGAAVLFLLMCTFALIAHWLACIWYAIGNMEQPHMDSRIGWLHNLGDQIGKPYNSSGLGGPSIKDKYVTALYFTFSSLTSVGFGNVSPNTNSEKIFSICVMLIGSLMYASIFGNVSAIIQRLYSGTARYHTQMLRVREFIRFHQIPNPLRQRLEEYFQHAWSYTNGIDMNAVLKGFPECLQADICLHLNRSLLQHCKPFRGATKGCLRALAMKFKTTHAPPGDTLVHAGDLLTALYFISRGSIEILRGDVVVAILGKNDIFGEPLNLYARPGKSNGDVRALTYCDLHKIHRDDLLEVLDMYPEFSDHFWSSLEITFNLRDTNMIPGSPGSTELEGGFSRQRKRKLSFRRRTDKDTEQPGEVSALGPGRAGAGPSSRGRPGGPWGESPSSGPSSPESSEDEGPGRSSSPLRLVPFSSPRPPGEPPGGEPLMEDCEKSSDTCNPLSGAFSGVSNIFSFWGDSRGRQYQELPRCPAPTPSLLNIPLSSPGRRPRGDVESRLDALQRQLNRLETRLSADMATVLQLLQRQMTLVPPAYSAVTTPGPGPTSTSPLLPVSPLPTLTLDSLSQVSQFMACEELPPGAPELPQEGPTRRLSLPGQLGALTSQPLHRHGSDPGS
# Procedure: Experiment 4: hERG Potassium Ion Channel Inhibition Assay
# Experimental purpose: To test the effects of the test examples on hERG potassium ion channels using an automated patch clamp method.
# 4.1.1 CHO-hERG cells were cultured in a 175 cm^2 culture flask. When the cell density grew from 60% to 80%, the culture medium was removed. The cells were washed once with 7 mL of PBS (Phosphate Buffered Saline), and then 3 mL of Detachin cell dissociation reagent was added thereto for digestion.
# 4.1.2 After the digestion was completed, 7 mL of culture medium was added thereto for neutralization, then the mixture was centrifuged, the supernatant was aspirated, and then 5 mL of culture medium was added thereto for resuspension to ensure a cell density of 2×10^6/mL to 5×10^6/ML.
# The single-cell high-resistance sealing and whole-cell modeling formation processes were all automatically completed by the Qpatch instrument of the Shanghai Institute of Materia Medica, Chinese Academy of Sciences. After obtaining the whole-cell recording modeling, the cells were clamped at −80 mV, and before a 5-second +40 mV depolarizing stimulus was given, a 50-millisecond −50 mV prepulse was first given, then the voltage was repolarized to −50 mV and holden for 5 seconds, and finally returned to −80 mV. This voltage stimulus was applied every 15 seconds, recorded for 2 minutes, and then the extracellular fluid was recorded for 5 minutes, and then the administration process was initiated, with compound concentrations starting at the lowest test concentration. The voltage stimulus was given for 2.5 minutes for each test concentration, and after all concentrations had been continuously given, 3 μM the positive control compound, Cisapride, was given. At least 3 cells were tested per concentration (n≥3).
# 4.4.1 The compound stock solution was diluted with DMSO, and 20 μL of DMSO solution was added with 10 μL of the compound stock solution, and serially diluted 3-fold to 6 DMSO concentrations.
# 4.4.2 4 μL of 6 DMSO concentrations of compounds were taken respectively and added to 396 μL of extracellular fluid, and the mixture was diluted 100-fold to 6 intermediate concentrations, then 80 μL of 6 intermediate concentrations of compounds was taken and added to 320 μL of extracellular fluid, and the mixture was diluted 5-fold to the final test concentration.
# 4.4.3 The highest test concentration was 40 μM, and the concentrations were respectively 40, 13.3, 4.4, 1.48, 0.494, and 0.165 μM for a total of six concentrations.
# 4.4.5 The preparation of the compound was completed by the Bravo instrument throughout the dilution process.
# Experimental data were analyzed by GraphPad Prism 5.0 software.
structure (smiles),measurement,setting,value
COc1ccc(-c2sc(C(=O)N3C4CCC3C(N)C4)cc2-c2ccc(C#N)c(F)c2)cc1F (racemic) [Hydrochloride of compound 2],IC50,[1],122 nM
same,IC50,[2],1.75 nM
same,clearance,[3]; female CD-1 mice,19.6 mL/min/kg
same,half-life,[3]; female CD-1 mice,5.23 h
same,Vd,[3]; female CD-1 mice,7.9 L/kg
same,bioavailability,[3]; female CD-1 mice,47.7%
same,AUC(0-t),[3]; female CD-1 mice,1.43 µM·h
same,Cmax,[3]; female CD-1 mice,209 nM
COc1ccc(-c2sc(C(=O)N3CCC[C@@H](N)C3)cc2-c2ccc(C#N)c(F)c2)cc1F [Hydrochloride of compound 1],IC50,[1],82 nM
same,IC50,[2],6.88 nM
same,clearance,[3]; female CD-1 mice,17.8 mL/min/kg
same,half-life,[3]; female CD-1 mice,5.59 h
same,Vd,[3]; female CD-1 mice,7.66 L/kg
same,bioavailability,[3]; female CD-1 mice,47.2%
same,AUC(0-t),[3]; female CD-1 mice,1.56 µM·h
same,Cmax,[3]; female CD-1 mice,245 nM
same,clearance,[3]; male CD-1 mice,16.7 mL/min/kg
same,half-life,[3]; male CD-1 mice,6.13 h
same,Vd,[3]; male CD-1 mice,8.33 L/kg
same,bioavailability,[3]; male CD-1 mice,53.9%
same,AUC(0-t),[3]; male CD-1 mice,2.24 µM·h
same,Cmax,[3]; male CD-1 mice,176 nM
COc1ccc(-c2sc(C(=O)N3CCC(N)CC3)cc2-c2ccc(C#N)c(F)c2)cc1F [Hydrochloride of compound 4],IC50,[1],110 nM
same,IC50,[2],30.1 nM
COc1ccc(-c2sc(C(=O)N3CCNCC3)cc2-c2ccc(C#N)c(F)c2)cc1F [Hydrochloride of compound 5],IC50,[1],345 nM
COc1ccc(-c2sc(C(=O)N3CCCC[C@@H](N)C3)cc2-c2ccc(C#N)c(F)c2)cc1F [Hydrochloride of compound 8],IC50,[1],120 nM
same,IC50,[2],8.73 nM
COc1ccc(-c2sc(C(=O)N3CC4CNCC4C3)cc2-c2ccc(C#N)c(F)c2)cc1F (centres unmarked) [Hydrochloride of compound 9],IC50,[1],118 nM
same,IC50,[2],15.8 nM
COc1ccc(-c2sc(C(=O)N3CCC4(CCNC4)CC3)cc2-c2ccc(C#N)c(F)c2)cc1F [Hydrochloride of compound 10],IC50,[1],192 nM
same,IC50,[2],22.4 nM
COc1ccc(-c2sc(C(=O)N3CC[C@@H](N)C3)cc2-c2ccc(C#N)c(F)c2)cc1F [Hydrochloride of compound 12],IC50,[1],393 nM
COc1ccc(-c2sc(C(=O)NC3CC4CCC3N4)cc2-c2ccc(C#N)c(F)c2)cc1F (centres unmarked) [Hydrochloride of compound 15],IC50,[1],310 nM
Cn1cc2cc(-c3sc(C(=O)N4CCC[C@@H](N)C4)cc3-c3ccc(C#N)c(F)c3)ccc2n1 [Hydrochloride of compound 36],IC50,[4],3.44 nM
same,IC50,[2],1.17 nM
same,clearance,[3]; female CD-1 mice,37.3 mL/min/kg
same,half-life,[3]; female CD-1 mice,2.01 h
same,Vd,[3]; female CD-1 mice,4.71 L/kg
same,bioavailability,[3]; female CD-1 mice,49.6%
same,AUC(0-t),[3]; female CD-1 mice,0.971 µM·h
same,Cmax,[3]; female CD-1 mice,224 nM
same,clearance,[3]; male CD-1 mice,31.5 mL/min/kg
same,half-life,[3]; male CD-1 mice,2.1 h
same,Vd,[3]; male CD-1 mice,4.47 L/kg
same,bioavailability,[3]; male CD-1 mice,33.9%
same,AUC(0-t),[3]; male CD-1 mice,0.742 µM·h
same,Cmax,[3]; male CD-1 mice,148 nM
same,Mean tumor volume ± SEM (mm^3) (Day 28),[5]; BID,53 ± 3 mm^3
same,TGI (%),[5]; BID,109.13%
same,Mean tumor volume ± SEM (mm^3) (Day 28),[5]; QD,87 ± 11 mm^3
same,TGI (%),[5]; QD,99.65%
CC(C)(CO)n1nnc2cc(-c3sc(C(=O)N4CCC[C@@H](N)C4)cc3-c3ccc(C#N)c(F)c3)c(F)c(F)c21 [Hydrochloride of compound 99],IC50,[4],17.4 nM
same,IC50,[2],4.26 nM
same,clearance,[3]; male CD-1 mice,42 mL/min/kg
same,half-life,[3]; male CD-1 mice,2.48 h
same,Vd,[3]; male CD-1 mice,7.23 L/kg
same,bioavailability,[3]; male CD-1 mice,47.7%
same,AUC(0-t),[3]; male CD-1 mice,0.625 µM·h
same,Cmax,[3]; male CD-1 mice,145 nM
same,IC50,[6],27000 nM
CN[C@@H]1CCCN(C(=O)c2cc(-c3ccc(C#N)c(F)c3)c(-c3ccc4c(c3)nnn4CC(C)(C)O)s2)C1 [Hydrochloride of compound 121],IC50,[4],14.3 nM
same,IC50,[2],7.7 nM
same,IC50,[6],20500 nM
same,Mean tumor volume ± SEM (mm^3) (Day 28),[5]; QD,75 ± 4 mm^3
same,TGI (%),[5]; QD,103.19%

# From patent US20240199571A1, “THIOPHENE COMPOUND AND APPLICATION THEREOF” (MEDSHINE DISCOVERY INC., priority 2021, published 2024)
